Experimental data taken from ChEMBL document CHEMBL1201862, “PubChem BioAssay data set” (2004).
Active and inactive are the calls of the source.

Assays:
[1] = target: T1, Mannose-6-phosphate isomerase (Homo sapiens, UniProt P34949); assay: MPI inhibition at elevated mannose 6-phosphate – biochemical, fluorescence intensity, high mannose 6-phosphate, primary screen (AID 1220)
T1 sequence (P34949 whole entry): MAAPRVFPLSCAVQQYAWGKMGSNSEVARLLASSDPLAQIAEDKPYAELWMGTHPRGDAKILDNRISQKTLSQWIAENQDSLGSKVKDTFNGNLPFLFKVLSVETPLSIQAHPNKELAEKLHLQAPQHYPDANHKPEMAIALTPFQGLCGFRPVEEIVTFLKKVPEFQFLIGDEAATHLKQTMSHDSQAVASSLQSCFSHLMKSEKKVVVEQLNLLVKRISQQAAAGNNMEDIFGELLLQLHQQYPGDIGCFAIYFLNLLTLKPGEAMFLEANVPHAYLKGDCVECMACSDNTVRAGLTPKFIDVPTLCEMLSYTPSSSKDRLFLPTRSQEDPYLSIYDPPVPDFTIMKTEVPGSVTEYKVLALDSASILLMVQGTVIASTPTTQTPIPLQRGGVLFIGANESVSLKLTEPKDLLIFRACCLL

[2] = viability loss in THP-1 monocytes – THP-1 cells, cytotoxicity control for Vif-APOBEC3G degradation inhibitor project, dose response (AID 1117359); type: functional; conditions: THP-1
Cytochrome P450 2C9 = Cytochrome P450 2C9 (Homo sapiens, UniProt P11712)
Cytochrome P450 2C9, sequence (P11712 whole entry): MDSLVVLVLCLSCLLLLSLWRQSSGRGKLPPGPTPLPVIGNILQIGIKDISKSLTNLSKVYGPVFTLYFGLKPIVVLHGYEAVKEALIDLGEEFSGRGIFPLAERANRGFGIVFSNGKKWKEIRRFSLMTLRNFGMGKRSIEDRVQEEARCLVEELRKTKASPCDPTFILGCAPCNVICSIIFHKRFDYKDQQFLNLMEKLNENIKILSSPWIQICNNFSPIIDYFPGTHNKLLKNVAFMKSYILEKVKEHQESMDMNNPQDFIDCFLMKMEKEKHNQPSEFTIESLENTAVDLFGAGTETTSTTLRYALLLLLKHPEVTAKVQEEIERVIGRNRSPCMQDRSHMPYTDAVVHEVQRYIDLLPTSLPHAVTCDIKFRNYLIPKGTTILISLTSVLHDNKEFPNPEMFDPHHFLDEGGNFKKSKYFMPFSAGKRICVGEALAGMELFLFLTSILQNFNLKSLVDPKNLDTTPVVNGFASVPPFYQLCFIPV

Cytochrome P450 2C19 = Cytochrome P450 2C19 (Homo sapiens, UniProt P33261); assay: Cytochrome panel assay with activity outcomes. Panel member name: p450-cyp2c19 Compounds with AC50 equal or less than 10 uM are considered active; type: functional; conditions: read-out: AC50
Cytochrome P450 2C19, sequence (P33261 whole entry): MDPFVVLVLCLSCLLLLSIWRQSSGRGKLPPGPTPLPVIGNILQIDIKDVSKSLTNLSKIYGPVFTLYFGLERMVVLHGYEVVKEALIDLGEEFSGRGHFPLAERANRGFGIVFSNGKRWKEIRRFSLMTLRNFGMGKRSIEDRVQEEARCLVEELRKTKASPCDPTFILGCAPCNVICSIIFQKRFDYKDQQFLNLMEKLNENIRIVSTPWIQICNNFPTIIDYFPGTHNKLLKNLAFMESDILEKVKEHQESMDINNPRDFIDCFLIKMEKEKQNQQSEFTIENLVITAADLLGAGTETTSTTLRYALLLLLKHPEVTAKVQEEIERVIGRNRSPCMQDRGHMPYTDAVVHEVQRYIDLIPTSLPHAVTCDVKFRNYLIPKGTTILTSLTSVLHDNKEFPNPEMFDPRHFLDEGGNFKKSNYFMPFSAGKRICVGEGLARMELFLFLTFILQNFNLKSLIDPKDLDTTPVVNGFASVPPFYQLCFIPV

Cytochrome P450 1A2 = target: T2, Cytochrome P450 1A2 (Homo sapiens, UniProt P05177);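 further: PubChem cytochrome P450 panel assay, CYP1A2 panel member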
T2 sequence (P05177 whole entry): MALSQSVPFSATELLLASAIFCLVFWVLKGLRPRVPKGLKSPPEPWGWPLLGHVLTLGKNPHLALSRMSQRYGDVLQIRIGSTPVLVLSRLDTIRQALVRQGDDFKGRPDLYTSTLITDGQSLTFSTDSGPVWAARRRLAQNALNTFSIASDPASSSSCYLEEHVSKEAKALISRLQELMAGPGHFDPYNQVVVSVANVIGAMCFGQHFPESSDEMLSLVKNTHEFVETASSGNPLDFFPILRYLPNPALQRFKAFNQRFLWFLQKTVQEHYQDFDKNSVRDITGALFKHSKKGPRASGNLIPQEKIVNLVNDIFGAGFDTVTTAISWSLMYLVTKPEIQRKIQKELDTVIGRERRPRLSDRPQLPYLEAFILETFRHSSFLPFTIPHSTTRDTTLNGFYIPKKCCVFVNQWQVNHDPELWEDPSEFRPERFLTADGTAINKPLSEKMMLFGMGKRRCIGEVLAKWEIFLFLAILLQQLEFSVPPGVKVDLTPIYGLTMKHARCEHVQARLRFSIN

[3] = viability loss in Vero cells – cytotoxicity control for Vif-APOBEC3G degradation inhibitor project, dose response (AID 1117358); type: functional; conditions: Vero
[4] = non-specific 3'UTR reporter inhibition in Clone20-Shn3RL – cell-based, Renilla luciferase, cherry-picked, counter-screen for Shn3 inhibitor project, dose response (AID 624133); type: functional
Genome polyprotein = Genome polyprotein (dengue virus type 2, UniProt P29990); assay: flavivirus cap methylation enzyme inhibition – biochemical, confirmation dose response, primary screen (AID 588689); type: functional
Genome polyprotein, sequence (P29990 2492-3391 limits assumed): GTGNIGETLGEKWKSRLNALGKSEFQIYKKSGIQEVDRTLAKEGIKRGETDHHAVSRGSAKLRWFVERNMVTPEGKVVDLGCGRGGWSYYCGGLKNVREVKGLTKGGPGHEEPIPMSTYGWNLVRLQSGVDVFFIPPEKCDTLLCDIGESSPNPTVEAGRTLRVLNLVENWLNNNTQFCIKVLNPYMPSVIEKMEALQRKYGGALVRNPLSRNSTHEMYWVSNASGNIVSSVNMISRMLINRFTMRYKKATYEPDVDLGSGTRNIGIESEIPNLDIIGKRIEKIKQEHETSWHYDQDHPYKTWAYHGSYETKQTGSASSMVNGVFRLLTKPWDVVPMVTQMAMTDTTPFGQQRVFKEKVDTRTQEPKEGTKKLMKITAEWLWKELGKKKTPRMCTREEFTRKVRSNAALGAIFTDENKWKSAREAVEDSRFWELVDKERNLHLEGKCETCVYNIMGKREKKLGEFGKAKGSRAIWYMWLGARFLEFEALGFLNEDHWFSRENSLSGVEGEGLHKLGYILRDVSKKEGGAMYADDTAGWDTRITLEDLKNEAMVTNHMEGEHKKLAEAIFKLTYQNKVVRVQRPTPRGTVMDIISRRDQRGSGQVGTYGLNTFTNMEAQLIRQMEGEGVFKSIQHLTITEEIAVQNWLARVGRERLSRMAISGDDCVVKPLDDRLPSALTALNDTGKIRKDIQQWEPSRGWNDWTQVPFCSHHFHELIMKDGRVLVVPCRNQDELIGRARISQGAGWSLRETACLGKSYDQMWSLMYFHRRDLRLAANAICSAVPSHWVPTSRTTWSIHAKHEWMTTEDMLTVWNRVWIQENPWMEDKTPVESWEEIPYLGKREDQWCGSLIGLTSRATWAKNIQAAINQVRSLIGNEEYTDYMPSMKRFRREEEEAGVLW

[5] = loss of viability in HepG2 cells – cell-based, CellTiter-Glo, cherry-picked, cytotoxicity control for Shn3 inhibitor project, dose response (AID 624134); type: functional
Caspase-6 = target: T3, Caspase-6 (Homo sapiens, UniProt P55212); assay: inhibition of CASP6 peptide cleavage – biochemical, VEID-R110 fluorescence, cherry-pick, dose response (AID 720632)
T3 sequence (P55212 whole entry): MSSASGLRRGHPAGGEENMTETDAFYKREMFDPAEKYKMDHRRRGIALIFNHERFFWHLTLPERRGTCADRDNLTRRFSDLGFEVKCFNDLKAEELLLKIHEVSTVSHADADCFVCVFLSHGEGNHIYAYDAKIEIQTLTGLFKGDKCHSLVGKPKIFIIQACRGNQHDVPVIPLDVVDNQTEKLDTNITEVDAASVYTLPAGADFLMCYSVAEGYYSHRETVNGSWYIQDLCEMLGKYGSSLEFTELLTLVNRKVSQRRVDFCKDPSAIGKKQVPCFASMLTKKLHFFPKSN

Vero = assay: viability of Vero cells under compound – cytotoxicity control for flavivirus capping enzyme inhibitors (AID 588742); type: functional; conditions: Chlorocebus sabaeus
[6] = reduction of Shn3 3'UTR-driven luciferase in osteoblasts – cell-based, Clone20 osteoblasts, firefly luciferase, cherry-picked, dose response (AID 624132); type: functional;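 further: firefly luciferase luminescence from reporter carrying the Shn3 3'UTR in osteoblasts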
Streptococcus = assay: GAS UMAA2166 growth inhibition – luminescence, BacTiterGlo, counter-screen for streptokinase expression inhibitor project, dose response (AID 1915); type: functional, organism-based;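 further: potency for reduction of bacterial viability or growth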
[7] = Trypanosoma cruzi growth suppression in host cells – NIH3T3 host cells, beta-gal luminescence, confirmation (AID 2044); type: functional, cell-based;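 further: intracellular parasites grown in NIH/3T3 mouse fibroblasts as host cells; luminescent beta-galactosidase reporter signal from transgenic T. cruzi replicating inside host cells; inhibitors lower the luminescence signal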
[8] = viability of HCT116 lacking mutant beta-catenin – cell-based, human colon tumor, dose response (AID 1045); type: functional;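 further: HCT116 colon tumor cells with beta catenin knocked out; cells exposed to compound for 60 hours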
[9] = tested on: Streptococcus sp. 'group A'; assay: Streptococcus pyogenes SK(-)GAS viability under kanamycin – luminescence, BacTiterGlo, confirmation, counter-screen for streptokinase expression inhibitor project, dose response (AID 1900); type: functional, organism-based
[10] = NIH3T3 cell viability loss – ATP luminescence, mouse fibroblasts, counter-screen, dose response (AID 2010); type: functional, cell-based;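 further: cells exposed to compound for about 90 hours before reading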
[11] = Luminescence Cell-Based Dose Retest to Confirm Inhibitors of Cancer Stem Cells. [Related pubchem assays (depositor defined):AID2717, AID2721]; type: functional; conditions: Homo sapiens
[12] = viability of PTEN-deleted HCT116 cells – cell-based, HCT116 PTEN knockout, dose response (AID 1047); type: functional;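 further: HCT116 colon tumor cells with PTEN knocked out; cells exposed to compound for 60 hours before readout; potency for loss of cell viability measured by luminescence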
Streptokinase A = target: T4, Streptokinase A (Streptococcus pyogenes serotype M1, UniProt P10520); assay: viability-normalized secreted streptokinase activity reduction – plasminogen activation absorbance, OD405, dose response (AID 1914); type: functional, Streptococcus pyogenes M1 GAS;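 further: secreted streptokinase activity via plasminogen activation per viability signal from cell pellet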
T4 sequence (P10520 whole entry): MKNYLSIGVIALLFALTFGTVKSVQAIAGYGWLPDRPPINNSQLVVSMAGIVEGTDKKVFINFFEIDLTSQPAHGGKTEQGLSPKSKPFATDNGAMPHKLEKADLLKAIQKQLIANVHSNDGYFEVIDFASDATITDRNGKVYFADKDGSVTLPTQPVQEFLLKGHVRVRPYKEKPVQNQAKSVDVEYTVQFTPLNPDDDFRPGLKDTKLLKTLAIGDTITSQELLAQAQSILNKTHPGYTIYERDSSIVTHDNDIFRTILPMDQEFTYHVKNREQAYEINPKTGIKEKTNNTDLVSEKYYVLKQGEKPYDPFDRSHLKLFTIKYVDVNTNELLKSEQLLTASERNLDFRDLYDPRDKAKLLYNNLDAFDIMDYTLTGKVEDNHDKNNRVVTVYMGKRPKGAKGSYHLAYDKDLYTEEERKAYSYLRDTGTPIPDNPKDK

SMILES: COc1ccccc1-n1c(SCC(=O)NCc2ccc3c(c2)OCO3)nc2cc([N+](=O)[O-])ccc21
- IC50 [1]: > 50 µM (not active)
- CC50 [2]: > 40 µM (active)

SMILES: O=C(NNC(=O)c1ccccc1-n1cccc1)c1ccc(Cl)c(Cl)c1
- AC50 (Cytochrome P450 2C9): inconclusive
- AC50 (Cytochrome P450 2C19): 3.98 µM (inconclusive)
- AC50 (Cytochrome P450 1A2): 25.1 µM (inconclusive)
- CC50 [3]: > 40 µM (active)

SMILES: CC(=O)N1CCc2c(sc(NC(=O)c3ccc([N+](=O)[O-])o3)c2C(N)=O)C1
- AC50 [4]: 13.1 µM (active)
- IC50 (Genome polyprotein): 89.3 µM (active)
- AC50 [5]: 20 µM (active)
- AC50 (Caspase-6): 12.7 µM (active)
- CC50 (Vero): 4.1 µM (active)
- AC50 [6]: 1.85 µM (active)

SMILES: O=C(/C=C/c1ccccc1)NC(NC(=S)Nc1cc(Cl)ccc1Cl)C(Cl)(Cl)Cl (stereo unspecified)
- EC50 (Streptococcus): 64.2 µM (active)
- CC50 [3]: > 40 µM (active)
- EC50 [7]: 1.73 µM (active)
- EC50 [8]: 16.1 µM (active)
- EC50 [9]: 2.43 µM (active)
- EC50 [10]: > 60 µM (not active)
- AC50 [11]: 0.993 µM (active)
- EC50 [12]: 17.3 µM (active)
- EC50 (Streptokinase A): 4.43 µM (active)
